# From patent US20250241897A1, “COMPOSITION FOR ERADICATING HELICOBACTER PYLORI” (HK INNO.N CORPORATION, priority 2018, published 2025)
# Legend:
# intragastric pH = assay: Clinical study 1, Cohort 2: 24-hour intragastric pH measurement on repeated co-administration; type: in vivo, human; conditions: with amoxicillin/clarithromycin
# From the text: To identify an effect of eradicating Helicobacter pylori in the present invention, a clinical study was designed in accordance with a randomized, open-label, active-controlled, parallel and multiple-dose design. A total of 221 patients were subjected to screening for this study. Out of them, 36 patients were registered thereto and the completed clinical results were obtained from 34 patients.
# Particularly, the 36 patients above were divided into three patient groups (T1, T2 and R) and the clinical study was performed accordingly. […]
# The T1 group was repeatedly given 50 mg of CJ-12420 and 1000 mg of amoxicillin/500 mg of clarithromycin twice a day for seven days; the T2 group was repeatedly given 100 mg of CJ-12420 and 1000 mg of amoxicillin/500 mg of clarithromycin twice a day for seven days; and the R group was repeatedly given 40 mg of pantoprazole and 1000 mg of amoxicillin/500 mg of clarithromycin twice a day for seven days. An intragastric pH was measured from all the subjects on Day 1 for 24 hours, and the intragastric pH was also measured for 24 hours on Day 1 and Day 7 of repeated administration. Also, a negative conversion rate was calculated upon a follow-up visit paid by subjects who were identified to be H. pylori positive on the UBT test during screening, and stability evaluation was performed according to a predetermined schedule. […]
# [1] = Clinical study 1, Cohort 1: pharmacokinetic interaction of tegoprazan and amoxicillin/clarithromycin, multiple dose; type: in vivo, human
# Protocol: To evaluate pharmacokinetic interaction of multiple-dose administration of single and combination of tegoprazan and amoxicillin/clarithromycin, a clinical study was designed in accordance with a randomized, open-label, and multiple-dose design.
# A total of 24 subjects who had been determined eligible to participate in the study were randomly assigned in a 1:1 ratio to each one of the two groups. Each randomly-assigned group was administered with investigational medical products as arranged during each intervention period and underwent a clinical study as designed. In consideration of the half-life of each product, a 14-day wash-out period was given between the intervention periods.
# A total of 24 subjects were divided into group 1 and group 2. During the first intervention period, subjects of group 1 (12 person) were repeatedly administered with 100 mg of tegoprazan twice a day for four days and administered once a day on the fifth day on which a pharmacokinetic clinical study was conducted. During the second intervention period after a 14-day wash-out period, they were repeatedly administered with 1000 mg of amoxicillin and 500 mg of clarithromycin twice a day for four days and administered once a day on the fifth day. During the third intervention period after a 14-day wash-out period, they were repeatedly administered with 100 mg of tegoprazan, 1000 mg of amoxicillin, and 500 mg of clarithromycin twice a day for six days and administered once a day on the seventh day. Following the last dose of each intervention period, pharmacokinetic blood samples were collected for 17 times over 72 hours in the first period, 14 times over 48 hours in the second period, and 19 times over 120 hours in the third period.
# Drugs were administered to subjects of group 2 (12 person) in the reverse order to the way the study was conducted on group 1 in the first and second intervention periods and in the same order in the third intervention period. Pharmacokinetic blood samples were collected in the same manner as group 1.
# The average plasma concentrations of tegoprazan, clarithromycin, and amoxicillin were measured and time-based plasma concentration and time-based drug concentration patterns were observed when tegoprazan was repeatedly administered alone, amoxicillin/clarithromycin were repeatedly administered and tegoprazan, amoxicillin, and clarithromycin were repeatedly administered in combination.
# Pharmacokinetics of tegoprazan, amoxicillin, and clarithromycin were evaluated. Descriptive statistics of pharmacokinetic evaluation parameters were presented. Point estimates for geometric mean ratio between each group and 90% confidence interval were calculated from the log-converted primary pharmacokinetic evaluation parameters by using a linear mixed effect model.
# [2] = tegoprazan 100 mg twice a day, combination with amoxicillin 1000 mg/clarithromycin 500 mg versus alone
# [3] = clarithromycin 500 mg with amoxicillin 1000 mg twice a day, with versus without tegoprazan 100 mg
SMILES,time to increase pH to 6 or more right after the administration (intragastric pH),"increase of AUC of tegoprazan when administered in combination with amoxicillin/clarithromycin [1, 2] [times]","increase of Cmax of tegoprazan when administered in combination with amoxicillin/clarithromycin [1, 2] [times]","AUC of clarithromycin when administered in combination with tegoprazan [1, 3]","Cmax of clarithromycin when administered in combination with tegoprazan [1, 3]"
"Cc1nc2c(OC3CCOc4cc(F)cc(F)c43)cc(C(=O)N(C)C)cc2[nH]1 (centres unmarked) [Tegoprazan, 4-[(5,7-difluoro-3,4-dihydro-2H-chromene-4-yl)oxy]-N,N,2-trimethyl-1H-benzimidazole-6-carboxamide]",two,2.70,2.24,,
"CC[C@H]1OC(=O)[C@H](C)[C@@H](O[C@H]2C[C@@](C)(OC)[C@@H](O)[C@H](C)O2)[C@H](C)[C@@H](O[C@@H]2O[C@H](C)C[C@H](N(C)C)[C@H]2O)[C@](C)(OC)C[C@@H](C)C(=O)[C@H](C)[C@@H](O)[C@]1(C)O [clarithromycin, (3R,4S,5S,6R,7R,9R,11R,12R,13S,14R)-6-[(2S,3R,4S,6R)-4-(dimethylamino)-3-hydroxy-6-methyloxane-2-yl]oxy-14-ethyl-12,13-dihydroxy-4-[(2R,4R,5S,6S)-5-hydroxy-4-methoxy-4,6-dimethyloxane-2-yl]oxy-7-methoxy-3,5,7,9,11,13-hexamethyl-oxacyclotetradecane-2,10-dione, reference compound]",,,,showed a tendency to increase,showed a tendency to increase
